# From patent US10722475B2, “Stealth nanocapsules for protein delivery” (THE REGENTS OF THE UNIVERSITY OF CALIFORNIA, priority 2014, dated 2020)
# How the values were obtained:
# [1] = system: native glucose oxidase (GOx); experiment: Activity assay, HRP-coupled oxidation rate of TMB with D-gluocose; format: biochemical
# Method: (§6) The activity of native GOx, pMPC-nGOx, native AOx, and pMPC-nAOx were determined with a similar method. Briefly, the initial reaction rates were determined by monitoring the oxidation rates of TMB of GOx and AOx when incubating with the assay solutions with different concentrations of substrates, respectively. For native GOx and pMPC-nGOx, the assay solutions were prepared by mixing TMB (0.5 mM), native HRP (0.001 mg/mL), and different amount of D-gluocose (0.005%, 0.010%, 0.015%, 0.020%, 0.030%, 0.040%, w/v) in 0.1 M phosphate buffer (pH 7.0). […] The measurements were achieved by monitoring the A655 of the reaction solutions during the incubation of 1 μL of native enzyme or pMPC-nProtein (0.5 mg/mL for native GOx and pMPC-nGOx, 1 mg/mL for native AOx and pMPC-nAOx) with their corresponding assay solution.
# [2] = system: pMPC-nGOx (glucose oxidase encapsulated in a pMPC nanocapsule); experiment: as above; format: biochemical
# Method: as §6
# [3] = molecular target: T1, native horseradish peroxidase (HRP) (Armoracia rusticana, UniProt P00433); experiment: Activity assay, oxidation rate of TMB with H2O2 as substrate; format: biochemical
# T1 construct: H2O2 substrate with TMB
# T1 sequence (P00433 31-338): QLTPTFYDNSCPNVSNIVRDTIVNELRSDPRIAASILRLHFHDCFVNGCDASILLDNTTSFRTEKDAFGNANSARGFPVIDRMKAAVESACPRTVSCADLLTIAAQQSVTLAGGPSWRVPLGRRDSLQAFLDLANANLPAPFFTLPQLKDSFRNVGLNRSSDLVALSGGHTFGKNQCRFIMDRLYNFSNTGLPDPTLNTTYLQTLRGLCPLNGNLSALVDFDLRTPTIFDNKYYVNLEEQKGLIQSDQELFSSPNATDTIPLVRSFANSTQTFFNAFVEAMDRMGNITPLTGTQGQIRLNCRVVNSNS
# [4] = system: pMPC-nHRP (horseradish peroxidase encapsulated in a pMPC nanocapsule)
# Text: (§1) To verify this, four enzymes, including horseradish peroxidase (HRP), glucose oxidase (GOx), uricase (UOx), and alcohol oxidase (AOx), were encapsulated with the same method, and their enzymatic activities were compared with their native counterparts, respectively.
# (§2) After acryloxylation, protein was encapsulated with pMPC using a in situ polymerization method. For the polymerization, 2-Methacryloyloxyethyl phosphorylcholine (MPC) and bis-methacrylamide (BIS) were first prepared as 10% (w/v) stock solution in DI-water and anhydrous DMSO, respectively. The final protein concentration was tuned to 1 mg/mL by diluting with phosphate buffer (50 mM, pH 7.0). Polymerization was initiated by the addition of ammonium persulfate (APS) and tetramethylethylenediamine (TEMED) and kept at room temperature for 2 h. After the polymerization, the solution was dialyzed against PBS to remove unreacted monomers and by-products. The detailed synthesis parameters of pMPC-nEGFP, pMPC-nOVA, pMPC-nHRP, pMPC-nGOx, pMPC-nUOx, pMPC-nAOx, pMPC-nTf, and pMPC-nBSA were listed in Table 5.
# (§3) The activity of pMPC-nHRP and native HRP were determined by monitoring the oxidation rate of 3,3′,5,5′-tetramethylbenzidine (TMB) using hydrogen peroxide (H2O2) as the substrate. Briefly, a series of H2O2 stock solutions with concentrations of 0.001%, 0.002%, 0.003%, 0.004%, 0.006%, 0.008% (w/v) was prepared by diluting a 50% H2O2 (w/v) with 0.1 M acetate buffer (pH 5.01) with 0.5 mM TMB. After mixing 1 mL of the substrate solution with 1 μL of pMPC-nHRP (0.1 mg/mL) or native HRP, the absorbance at 655 nm (A655) of the reaction solution was monitored with a UV-Vis spectrometer for 3 min. The absorption curve was plotted versus time and ΔA655/min from the linear portion of the curve was calculated. The activity assays were repeated with a series of concentrations of substrate to get the catalytic rates to obtain KM^app and kcat^app by the Lineweaver—Burk plot.
# [5] = system: native alcohol oxidase (AOx)
# Method: as §1, §3
# (§4) The activity of native GOx, pMPC-nGOx, native AOx, and pMPC-nAOx were determined with a similar method. Briefly, the initial reaction rates were determined by monitoring the oxidation rates of TMB of GOx and AOx when incubating with the assay solutions with different concentrations of substrates, respectively. For native GOx and pMPC-nGOx, the assay solutions were prepared by mixing TMB (0.5 mM), native HRP (0.001 mg/mL), and different amount of D-gluocose (0.005%, 0.010%, 0.015%, 0.020%, 0.030%, 0.040%, w/v) in 0.1 M phosphate buffer (pH 7.0). For native AOx and pMPC-nAOx, the assay solutions were composed by TMB (0.5 mM), native HRP (0.001 mg/mL), and different amount of ethanol (0.0025%, 0.005%, 0.0075%, 0.010%, 0.020%, 0.030%, w/v) in 0.1 M phosphate buffer (pH 7.0). The measurements were achieved by monitoring the A655 of the reaction solutions during the incubation of 1 μL of native enzyme or pMPC-nProtein (0.5 mg/mL for native GOx and pMPC-nGOx, 1 mg/mL for native AOx and pMPC-nAOx) with their corresponding assay solution.
# [6] = system: pMPC-nAOx (alcohol oxidase encapsulated in a pMPC nanocapsule)
# Text: as §1, §2, §3
# as §4, with “The measurements were achieved by monitoring the A655 of the reaction solutions during the incubation of 1 μL of native enzyme or pMPC-nProtein (0.5 mg/mL for native GOx and pMPC-nGOx, 1 mg/mL for native AOx and pMPC-nAOx) with their corresponding assay solution.” left out
# native uricase (UOx) = experiment: Activity assay, decrease of A290 with urate; format: biochemical
# Text: (§5) The initial rates were achieved by plotting the absorption at 290 nm versus time and calculating the ΔA290/min from the linear portion of the curve.
# [7] = system: pMPC-nUOx (uricase encapsulated in a pMPC nanocapsule); experiment: Activity assay, decrease of A290 with urate; format: biochemical
# Text: as §5
structure (smiles),measurement,setting,value
OC[C@H]1OC(O)[C@H](O)[C@@H](O)[C@@H]1O (stereo partly drawn) [D-gluocose],Kcat^app/KM^app relative to native,[1]; native GOx = 100%,100 ± 34.5%
same,kcat^app,"[1]; native GOx, 0.1 M phosphate buffer pH 7.0, 0.5 mM TMB, HRP 0.001 mg/mL",87.9 s⁻¹
same,Km,"[1]; native GOx, 0.1 M phosphate buffer pH 7.0, 0.5 mM TMB, HRP 0.001 mg/mL, read-out: KM^app",18 ± 6.21 mM
same,Kcat^app/KM^app,"[1]; native GOx, pH 7.0",4883 ± 1684 M⁻¹ s⁻¹
same,Kcat^app/KM^app relative to native,[2]; pMPC-nGOx vs native GOx,73.7 ± 31.1%
same,kcat^app,"[2]; pMPC-nGOx, 0.1 M phosphate buffer pH 7.0, 0.5 mM TMB, HRP 0.001 mg/mL",77.6 s⁻¹
same,Km,"[2]; pMPC-nGOx, 0.1 M phosphate buffer pH 7.0, 0.5 mM TMB, HRP 0.001 mg/mL, read-out: KM^app",21.6 ± 6.7 mM
same,Kcat^app/KM^app,"[2]; pMPC-nGOx, pH 7.0",3600 ± 1119 M⁻¹ s⁻¹
"OO [H2O2, hydrogen peroxide]",Kcat^app/KM^app relative to native,[3]; native HRP = 100%,100 ± 22.7%
same,kcat^app,"[3]; native HRP, 0.1 M acetate buffer pH 5.01, 0.5 mM TMB, Lineweaver-Burk",403 s⁻¹
same,Kcat^app/KM^app relative to native,[4]; pMPC-nHRP vs native HRP,91.1 ± 28.1%
same,kcat^app,"[4]; pMPC-nHRP, 0.1 M acetate buffer pH 5.01, 0.5 mM TMB, Lineweaver-Burk",480 s⁻¹
same,Kcat^app/KM^app,"[4]; pMPC-nHRP, pH 5.01, 0.5 mM TMB",3.9669e+06 ± 1.1147e+06 M⁻¹ s⁻¹
same,Km,"[4]; read-out: KM^app, pMPC-nHRP, 0.1 M acetate buffer pH 5.01, 0.5 mM TMB, Lineweaver-Burk",0.121 ± 0.034 mM
CCO [ethanol],Kcat^app/KM^app relative to native,[5]; native AOx = 100%,100 ± 23.61%
same,kcat^app,"[5]; native AOx, 0.1 M phosphate buffer pH 7.0, 0.5 mM TMB, HRP 0.001 mg/mL",18.8 s⁻¹
same,Kcat^app/KM^app,"[5]; native AOx, pH 7.0",6047 ± 1428 M⁻¹ s⁻¹
same,Km,"[5]; read-out: KM^app, native AOx, 0.1 M phosphate buffer pH 7.0, 0.5 mM TMB, HRP 0.001 mg/mL",3.11 ± 0.72 mM
same,Kcat^app/KM^app relative to native,[6]; pMPC-nAOx vs native AOx,75.6 ± 28.00%
same,kcat^app,"[6]; pMPC-nAOx, 0.1 M phosphate buffer pH 7.0, 0.5 mM TMB, HRP 0.001 mg/mL",23.4 s⁻¹
same,Kcat^app/KM^app,"[6]; pMPC-nAOx, pH 7.0",4570 ± 1279 M⁻¹ s⁻¹
same,Km,"[6]; read-out: KM^app, pMPC-nAOx, 0.1 M phosphate buffer pH 7.0, 0.5 mM TMB, HRP 0.001 mg/mL",5.12 ± 1.43 mM
O=c1[nH]c(=O)c2[nH]c(=O)[nH]c2[nH]1 [urate],Kcat^app/KM^app relative to native,native uricase (UOx); native UOx = 100%,100 ± 7.7%
same,kcat^app,"native uricase (UOx); native UOx, 0.1 M borate buffer pH 8",3.36 s⁻¹
same,Km,"native uricase (UOx); native UOx, 0.1 M borate buffer pH 8, read-out: KM^app",0.0219 ± 0.0017 mM
same,Kcat^app/KM^app,"native uricase (UOx); native UOx, pH 8",153400 ± 11800 M⁻¹ s⁻¹
same,Kcat^app/KM^app relative to native,[7]; pMPC-nUOx vs native UOx,90.4 ± 16.5%
same,kcat^app,"[7]; pMPC-nUOx, 0.1 M borate buffer pH 8",3.59 s⁻¹
same,Km,"[7]; pMPC-nUOx, 0.1 M borate buffer pH 8, read-out: KM^app",0.0259 ± 0.0043 mM
same,Kcat^app/KM^app,"[7]; pMPC-nUOx, pH 8",138600 ± 22900 M⁻¹ s⁻¹
